Each structure is given as a SMILES string.

The test system of one data set is rat SULT2A1 gene. The note with it: Makishima et al., 1999; cited from earlier work.
Another data set has as its system Leydig cells. Put plainly: Viability of isolated Leydig cells (trypan blue exclusion test). The note with it: 100 μM, 8 h of exposure. In kind it is cell-based, boar. The protocol:
After the slaughter of group A boars, bulbourethral glands were removed and measured for length. A backfat sample was removed from the midline on the point of the 11th rib and frozen at −20° C. until assayed for 5α-androstenone. Testes samples were obtained from five randomly selected animals immediately after slaughter. Testes were transported to the laboratory within five minutes of their removal from the boar. One testis was dissected free from the epididymis, cut longitudinally, and decapsulated. The tissue was sliced and 100 g of tissue was incubated for 12 min in a shaking water bath at 37° C. with 1 mg/mL collagenase (type 1A), 50 μg/mL trypsin inhibitor, and 50 μg/mL DNase in 250 mL of Williams Media E containing 1 g/L bovine serum albumin and 0.1 g/L L-glutamine. Purified Leydig cells were obtained by layering the collagenase dispersed cells onto discontinuous Percoll gradients (Raeside and Renaud, 1983). Cell viability was determined with a trypan blue exclusion test. The typical viability of the isolated Leydig cells was 90%.
Purified Leydig cells were resuspended (50×10^6 cells/incubation) into a final volume of 25 ml of Williams Media E mixture. […] The sulfotransferase activity towards 5α-androstenone was determined by HPLC analysis of extracted 5 ml media aliquots.

A further data set deals with HST. The note with it: Okuda et al., 1989; Singer et al., 1984; cited from earlier work.
Data set [1] deals with sulfotransferase activity towards 5α-androstenone in Leydig cells. The experiment in a line: Inhibition studies: production of sulfoconjugated 16-androstene steroids from radiolabelled pregnenolone by purified Leydig cells. In kind it is cell-based, boar. The note with it: for production of sulfoconjugated 16-androstene steroids from pregnenolone: 8 hours, 0, 5, 10, 50 or 100 μM inhibitor.
Experimental: Purified Leydig cells were resuspended (50×10^6 cells/incubation) into a final volume of 25 ml of Williams Media E mixture. Radiolabelled [7-^3H(N)]-pregnenolone (3.4μCi/μmol) was added as a substrate to give a final concentration of 0.4 μmol/incubation. Leydig cells were incubated for a total of 8 hours at 37° C. under 95%:5% CO2 atmosphere at in a Dubnoff shaking waterbath in the presence of 0, 5, 10, 50, or 100 μM of various sulfotransferase inhibitors. 8 hour incubations were used, as this is an optimal time-point for steroid conjugation under these conditions. […] Estrone was used as an EST-inhibitor. The sulfotransferase activity towards 5α-androstenone was determined by HPLC analysis of extracted 5 ml media aliquots.
Prior to analysis, conjugated steroids were separated from unconjugated steroids with the use of Sep-Pak C18 solid-phase chromatography cartridges as described previously (Raeside et al., 1997). After separation, the conjugate fraction was hydrolyzed overnight in trifluroacetic acid/ethyl acetate (1/100 v/v) at 45° C. in order to liberate the sulfoconjugated steroids (Raeside et al., 1999b). The solvolyzed steroids were then re-extracted by solid-phase chromatography. Enzyme hydrolysis was performed on the remaining conjugated material present after solvolysis with 1250 units of β-glucuronidase (type B-1, from bovine liver), and incubated overnight at 37° C.
The unconjugated and hydrolyzed steroids from the inhibition studies were analyzed by HPLC using the same protocol as stated above; however; radiolabelled steroids were measured on-line with a Canberra-Packard 500TR flow scintillation analyzer.

For `C[C@H](CCC(=O)O)[C@H]1CC[C@H]2[C@@H]3[C@H](O)C[C@@H]4C[C@H](O)CC[C@]4(C)[C@H]3CC[C@]12C` [Chenodeoxycholic acid], in the data set with rat SULT2A1 gene, the “induction of the rat SULT2A1 gene” value was “strong inducer”.
As for `Oc1c(Cl)c(Cl)c(Cl)c(Cl)c1Cl` [PCP, Pentachlorophenol], the “viability of the Leydig cells” value in the data set on Leydig cells was “less than 50%”. Further, the “inhibition of HST” value with HST is given as “does not inhibit”. Further, the “production of sulfoconjugated 16-androstene steroids from pregnenolone” value in data set [1] (Leydig cells) is given as “no effect”.
For `CCN(CC)CC` [Triethylamine], the “viability of the Leydig cells” value in the data set on Leydig cells was determined as 85%. Besides, the “production of the unconjugated forms of the 16-androstene steroids” value in data set [1] (Leydig cells treated with inhibitor, 8 hours) is listed as “increased production”. Also, the “production of sulfoconjugated 16-androstene steroids from pregnenolone” value in data set [1] (Leydig cells) is listed as “decreased production”. Moreover, the “production of sulfoconjugated 16-androstene steroids at the 100 μM level” value in data set [1] (Leydig cells, 8 hours, 100 μM inhibitor) is “near zero levels”.

These data come from patent US20060024708A1, “Porcine sulfotransferase 2A1 polynucleotide sequence, protein, and methods of use for same” (UNIVERSITY OF GUELPH, priority 2004, published 2006).
